Results reported in US20250122174A1 (Shenzhen Yuanli Shenwan Innovative Medicine Co., Ltd., priority 2022, published 2025).

These molecules were tested against HPK1 (Homo sapiens (Human), UniProt Q92918) (assay: HPK1 Inhibition Assay (ADP-Glo kinase assay)). Conditions: ATP 10 μM.
HPK1, sequence (Q92918 1-346 limits assumed): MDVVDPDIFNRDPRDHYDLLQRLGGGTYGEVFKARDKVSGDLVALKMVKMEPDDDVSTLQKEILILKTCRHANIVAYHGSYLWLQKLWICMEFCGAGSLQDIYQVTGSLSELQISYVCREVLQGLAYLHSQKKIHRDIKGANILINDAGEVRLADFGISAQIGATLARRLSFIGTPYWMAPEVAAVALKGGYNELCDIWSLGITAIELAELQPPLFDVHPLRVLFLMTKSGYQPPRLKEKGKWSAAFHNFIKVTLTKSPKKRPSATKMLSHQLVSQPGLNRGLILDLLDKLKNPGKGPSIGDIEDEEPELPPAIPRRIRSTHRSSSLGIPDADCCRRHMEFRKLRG
Assay type: biochemical
Summary of the method: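 ADP-Glo luminescence read-out after 1 h room-temperature kinase reaction with 10 μM ATP and 0.1 μg/ml MBP. Recombinant human HPK1 at 7.5 ng/μl; buffer 40 mM Tris pH 7.5, 20 mM MgCl2. Compounds serially diluted 5-fold over 10 points from 10 mM DMSO stock.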
In the case of `CC(C)c1nc2c(N3CC[C@@H](O)C3)c(NC(=O)c3ccc(=O)n(-c4c(F)cccc4F)n3)ccc2n1C` [Example 117, (R)-1-(2,6-difluorophenyl)-N-(4-(3-hydroxypyrrolidin-1-yl)-2-isopropyl-1-methyl-1H-benzo[d]imidazol-5-yl)-6-oxo-1,6-dihydropyridazine-3-carboxamide], the IC50 is reported as < 100 nM.
For `C[C@H]1CN(c2c(NC(=O)c3ccc(=O)n(-c4c(F)cccc4F)n3)ccc3c2cnn3C)C[C@@H]1N` [Example 173, N-(4-((3R,4S)-3-amino-4-methylpyrrolidin-1-yl)-1-methyl-1H-indazol-5-yl)-1-(2,6-difluorophenyl)-6-oxo-1,6-dihydropyridazine-3-carboxamide], the IC50 was < 100 nM.
In the case of `CC(C)c1nc2c(N3CCC(N)CC3)c(NC(=O)c3ccc(=O)n(-c4c(F)cccc4F)n3)ccc2n1C` [Example 133, N-(4-(4-aminopiperidin-1-yl)-2-isopropyl-1-methyl-1H-benzo[d]imidazol-5-yl)-1-(2,6-difluorophenyl)-6-oxo-1,6-dihydropyridazine-3-carboxamide], the IC50 is reported as < 100 nM.
With `C[C@H]1CN(c2c(NC(=O)c3ccc(=O)n(-c4c(F)cccc4F)n3)ccc3nn(C45CCC(CC4)C5)cc23)C[C@@H]1N` [Example 312, N-(4-((3R,4S)-3-amino-4-methylpyrrolidin-1-yl)-2-(bicyclo[2.2.1]heptan-1-yl)-2H-indazol-5-yl)-1-(2,6-difluorophenyl)-6-oxo-1,6-dihydropyridazine-3-carboxamide] the IC50 was < 100 nM.
For `CC(C)c1nc2c(N3CCC[C@H]3CN)c(NC(=O)c3ccc(=O)n(-c4c(F)cccc4F)n3)ccc2n1C` [Example 134, (S)-N-(4-(2-(aminomethyl)pyrrolidin-1-yl)-2-isopropyl-1-methyl-1H-benzo[d]imidazol-5-yl)-1-(2,6-difluorophenyl)-6-oxo-1,6-dihydropyridazine-3-carboxamide], the IC50 was < 100 nM.
In the case of `CC(C)n1cc2c(N3CC[C@@H](N)C3)c(NC(=O)c3ccc(=O)n(-c4c(F)cccc4F)n3)cc(F)c2n1` [Example 222, (R)-N-(4-(3-aminopyrrolidin-1-yl)-7-fluoro-2-isopropyl-2H-indazol-5-yl)-1-(2,6-difluorophenyl)-6-oxo-1,6-dihydropyridazine-3-carboxamide], the IC50 is reported as < 100 nM.
For `C[C@H]1CN(c2c(NC(=O)c3ccc(=O)n(-c4c(F)cccc4F)n3)ccc3c2cnn3C2CC2)C[C@@H]1N` [Example 299, N-(4-((3R,4S)-3-amino-4-methylpyrrolidin-1-yl)-1-cyclopropyl-1H-indazol-5-yl)-1-(2,6-difluorophenyl)-6-oxo-1,6-dihydropyridazine-3-carboxamide], the IC50 was < 100 nM.
`C[C@@H]1CN(c2c(NC(=O)c3ccc(=O)n(-c4c(F)cccc4F)n3)ccc3nn(C(C)(C)C(C)(C)C)cc23)C[C@@H]1N` [Example 245, N-(4-((3R,4R)-3-amino-4-methylpyrrolidin-1-yl)-2-(2,3,3-trimethylbutan-2-yl)-2H-indazol-5-yl)-1-(2,6-difluorophenyl)-6-oxo-1,6-dihydropyridazine-3-carboxamide] was tested, and the IC50 was < 100 nM.
With `CC(C)c1nc2c(N3CC[C@](N)(CO)C3)c(NC(=O)c3ccc(=O)n(-c4c(F)cccc4F)n3)ccc2n1C` (single isomer, unassigned) [Example 125] the IC50 was < 100 nM.
`[2H]C([2H])([2H])n1cc2c(N3C[C@@H](C)[C@@H](N)C3)c(NC(=O)c3ccc(=O)n(-c4c(F)cccc4F)n3)ccc2n1` [Example 178, N-(4-((3R,4R)-3-amino-4-methylpyrrolidin-1-yl)-2-(methyl-d3)-2H-indazol-5-yl)-1-(2,6-difluorophenyl)-6-oxo-1,6-dihydropyridazine-3-carboxamide] was tested, and the IC50 was < 100 nM.
In the case of `COc1cccc(F)c1-c1nccc(C(=O)Nc2ccc(-c3cnccc3C#N)cc2N2CC[C@H](N)C2)c1F` [Example 12, N-(2-((S)-3-aminopyrrolidin-1-yl)-4-(4-cyanopyridin-3-yl)phenyl)-3-fluoro-2-(2-fluoro-6-methoxyphenyl)isonicotinamide], the IC50 is reported as < 100 nM.
With `CC(C)n1cc2c(N3CC[C@@](C)(N)C3)c(NC(=O)c3ccc(=O)n(-c4c(F)cccc4F)n3)ccc2n1` [Example 220, (R)—N-(4-(3-amino-3-methylpyrrolidin-1-yl)-2-isopropyl-2H-indazol-5-yl)-1-(2,6-difluorophenyl)-6-oxo-1,6-dihydropyridazine-3-carboxamide] the IC50 was < 100 nM.
In the case of `Cn1c(CC(F)(F)F)nc2c(N3CC[C@@H](N)C3)c(NC(=O)c3ccc(=O)n(-c4c(F)cccc4F)n3)ccc21` [Example 156, (R)-N-(4-(3-aminopyrrolidin-1-yl)-1-methyl-2-(2,2,2-trifluoroethyl)-1H-benzo[d]imidazol-5-yl)-1-(2,6-difluorophenyl)-6-oxo-1,6-dihydropyridazine-3-carboxamide], the IC50 is reported as < 100 nM.
With `N#Cc1ccncc1-c1ccc(NC(=O)c2ccc(=O)n(-c3c(F)cccc3F)n2)c(N2CC[C@](N)(C(F)(F)F)C2)c1` (single isomer, unassigned) [Example 359] the IC50 was < 100 nM.
In the case of `N#Cc1ccncc1-c1ccc(NC(=O)c2ccc(=O)n(-c3c(F)cccc3F)n2)c(N2CCN[C@H](CO)C2)c1` [Example 350, (S)-N-(4-(4-cyanopyridin-3-yl)-2-(3-(hydroxymethyl)piperazin-1-yl)phenyl)-1-(2,6-difluorophenyl)-6-oxo-1,6-dihydropyridazine-3-carboxamide], the IC50 is reported as < 100 nM.
With `CC(C)n1ncc2c(N3C[C@@H](N)C[C@H]3CO)c(NC(=O)c3ccc(=O)n(-c4c(F)cccc4F)n3)ccc21` [Example 212, N-(4-((25,4S)-4-amino-2-(hydroxymethyl)pyrrolidin-1-yl)-1-isopropyl-1H-indazol-5-yl)-1-(2,6-difluorophenyl)-6-oxo-1,6-dihydropyridazine-3-carboxamide] the IC50 was < 100 nM.
With `CC(C)c1nc2c(N3CC[C@@H](NC(=O)CCN)C3)c(NC(=O)c3ccc(=O)n(-c4c(F)cccc4F)n3)ccc2n1C` [Example 128, (R)-N-(4-(3-(3-aminopropanamido)pyrrolidin-1-yl)-2-isopropyl-1-methyl-1H-benzo[d]imidazol-5-yl)-1-(2,6-difluorophenyl)-6-oxo-1,6-dihydropyridazine-3-carboxamide] the IC50 was < 100 nM.
With `Cn1ncc2c(N3C[C@H](N)C4(CC4)C3)c(NC(=O)c3ccc(=O)n(-c4c(F)cccc4F)n3)ccc21` [Example 174, (R)-N-(4-(7-amino-5-azaspiro[2.4]heptan-5-yl)-1-methyl-1H-indazol-5-yl)-1-(2,6-difluorophenyl)-6-oxo-1,6-dihydropyridazine-3-carboxamide] the IC50 was < 100 nM.
With `CC(C)n1ncc2c(N3CC[C@@H](N)C3)c(NC(=O)c3ccc(=O)n(-c4c(F)cccc4F)n3)cc(F)c21` [Example 188, (R)-N-(4-(3-aminopyrrolidin-1-yl)-7-fluoro-1-isopropyl-1H-indazol-5-yl)-1-(2,6-difluorophenyl)-6-oxo-1,6-dihydropyridazine-3-carboxamide] the IC50 was < 100 nM.
For `CC(C)c1nc2c(N3CC[C@@H](N(C)C)C3)c(NC(=O)c3ccc(=O)n(-c4c(F)cccc4F)n3)ccc2n1C` [Example 126, (R)-1-(2,6-difluorophenyl)-N-(4-(3-(dimethylamino)pyrrolidin-1-yl)-2-isopropyl-1-methyl-1H-benzo[d]imidazol-5-yl)-6-oxo-1,6-dihydropyridazine-3-carboxamide], the IC50 was < 100 nM.
